This note sets out measurements from patent US10795272B2, “Triphenylamine derivative, and charge transport material and electrophotographic photoreceptor using the same” (TAKASAGO INTERNATIONAL CORPORATION, priority 2016, dated 2020).

A short description of data set [1]: Solubility in tetrahydrofuran. The note with it: 25° C.; weight completely dissolved in 1 g of tetrahydrofuran. It counts as physicochemical. On the procedure:
Compound (1-1) was dissolved in 1 g of tetrahydrofuran at 25° C.
In the same manner as in Example 14, experiments were conducted by using Compound (1-4) or (1-9).
In the same manner as in Example 14, experiments were conducted by using Comparative Compound (5) which was a compound described in Japanese Patent Application Publication No. Hei 3-149560.

A word on the melting point: it is the temperature of the solid-liquid transition.

`Cc1ccc(N(c2ccc(/C=C/c3ccc(/C=C/C=C(c4ccccc4)c4ccccc4)cc3)cc2)c2ccc(/C=C/c3ccc(/C=C/c4ccc(N(c5ccc(C)cc5)c5ccc(/C=C/c6ccc(/C=C/C=C(c7ccccc7)c7ccccc7)cc6)cc5)cc4)cc3)cc2)cc1` [Compound (1-1)]: the melting point lay in the range of 178 to 180 °C. The Solubility in data set [1] was determined as 0.16 g/g tetrahydrofuran. `C(=Cc1ccc(N(c2ccccc2)c2ccc(C=C(c3ccccc3)c3ccccc3)cc2)cc1)c1ccc(C=Cc2ccc(N(c3ccccc3)c3ccc(C=C(c4ccccc4)c4ccccc4)cc3)cc2)cc1` [Comparative Compound (5), reference compound] showed a Solubility in data set [1] of 0.03 g/g tetrahydrofuran. `C(/C=C/c1ccc(/C=C/c2ccc(N(c3ccccc3)c3ccc(/C=C/c4ccc(/C=C/c5ccc(N(c6ccccc6)c6ccc(/C=C/c7ccc(/C=C/C=C(c8ccccc8)c8ccccc8)cc7)cc6)cc5)cc4)cc3)cc2)cc1)=C(c1ccccc1)c1ccccc1` [Compound (1-4)] came in with a melting point of 162 to 164 °C. The compound further showed a Solubility in data set [1] of 0.13 g/g tetrahydrofuran. The corresponding values for `COc1ccc(N(c2ccc(/C=C/c3ccc(/C=C/C=C(c4ccccc4)c4ccccc4)cc3)cc2)c2ccc(/C=C/c3ccc(/C=C/c4ccc(N(c5ccc(/C=C/c6ccc(/C=C/C=C(c7ccccc7)c7ccccc7)cc6)cc5)c5ccc(OC)cc5)cc4)cc3)cc2)cc1` [Compound (1-9)] are 222 to 224 °C and 0.14 g/g tetrahydrofuran. For the compound `Cc1ccc(N(c2ccc(/C=C/c3ccc(/C=C/C=C(c4ccccc4)c4ccccc4)cc3)cc2)c2ccc(/C=C/c3ccc(/C=C/c4ccc(N(c5ccc(/C=C/c6ccc(/C=C/C=C(c7ccccc7)c7ccccc7)cc6)cc5)c5ccc(C)cc5C)cc4)cc3)cc2)c(C)c1` [Compound (1-7)], the melting point was 161 to 163 °C.

In turn, `Cc1ccc(C(=C/C=C/c2ccc(/C=C/c3ccc(N(c4ccc(/C=C/c5ccc(/C=C/c6ccc(N(c7ccc(/C=C/c8ccc(/C=C/C=C(c9ccc(C)cc9)c9ccc(C)cc9)cc8)cc7)c7ccc(C)cc7C)cc6)cc5)cc4)c4ccc(C)cc4C)cc3)cc2)c2ccc(C)cc2)cc1` [Compound (1-17)] displayed a melting point of 255 to 257 °C.
